In patent US11266707B2, “Nutraceuticals for the prevention, inhibition, and treatment of SARS-CoV-2 and associated COVID-19” (priority 2020, dated 2022):
Like-named read-outs stand apart in the source and are kept apart here.

Tests used:
LPS-induced ARDS [1] = details: cited from earlier work
[2] = tested on: LPS-challenged macrophages; details: pre-incubated 6 h with 0 to 50 μM, then LPS 24 h; cited from earlier work
[3] = tested on: primary peritoneal macrophages; details: cited from earlier work
[4] = tested on: lipopolysaccharide-induced inflammatory reactions; details: cited from earlier work
[5] = tested on: sepsis induction with live Escherichia coli; details: cited from earlier work; for concentration of IL-1a: controls 1187.0±278.64, P<0.05
[6] = tested on: lipopolysaccharide-activated macrophages; details: cited from earlier work
[7] = 10 mg/kg intravenously then 10 mg/kg/h infusion; cited from earlier work
[8] = cited from earlier work
[9] = 10 mg/kg intraperitoneally; 72 h after CL2P; cited from earlier work
[10] = 10 mg/kg intraperitoneally at 1 and 6 h after CL2P and every 12 h; 18 h; cited from earlier work
macrophage foam cells = details: pretreatment; cited from earlier work
LPS-induced ARDS [11] = details: cited from earlier work; remark: listed apart in the source
[12] = cited from earlier work; remark: listed apart in the source
[13] = tested on: interleukin-I, interleukin-6, interleukin-8, TNF-alpha; details: cited from earlier work
NK cell = assay: Pterostilbene given as nanostilbene to cancer patients: NK cell activity and interferon gamma; type: in vivo, human; details: administered in the form of nanostilbene in cancer patients
[14] = tested on: endothelium of atherosclerotic plaque; details: apoE(−/−) mice, injection; cited from earlier work
[15] = animal studies; cited from earlier work
[16] = tested on: human umbilical vein VECs (HUVECs); details: cited from earlier work
[17] = 50 mg/kg, LPS 5 mg/kg 3 days later
[18] = lung, serum, and bronchoalveolar lavage fluid

## C[S+]([O-])CCCCN=C=S (stereo not shown) [sulforaphane, 1-isothiocyanato-4-(methylsulfinyl)-butane]
LPS-induced ARDS [1]; 50 mg/kg, ELISA
  serum levels of interleukin-6 (IL-6): significantly decreased
  serum levels of tumor necrosis factor-a (TNF-a): significantly decreased
LPS-induced ARDS [1]; [17]
  lactate dehydrogenase (LDH) activity: significantly decreased
  wet-to-dry ratio of the lungs: significantly decreased
LPS-induced ARDS [1]; 50 mg/kg
  inducible nitric oxide synthase (iNOS) activity: significantly inhibited
  prostaglandin E2 (PGE2) production: significantly inhibited
LPS-induced ARDS [1]; pre-treatment
  Nrf2/antioxidant response element (ARE) pathway: activated
LPS-induced ARDS [1]; western blot
  cyclooxygenase-2 (COX-2) protein expression: significantly inhibited
  matrix metalloproteinase-9 (MMP-9) protein expression: significantly inhibited
[2]
  expression of NO and cytokines: able to prevent
[3]; LPS-stimulated Nrf2 (+/+) primary peritoneal macrophages
  HO-1 expression: significantly augmented
[3]; Nrf2 (+/+) primary peritoneal macrophages, pretreatment
  LPS-stimulated mRNA expression, protein expression and production of TNF-alpha, IL-1beta, COX-2 and iNOS: potently inhibited
[3]; Nrf2 (−/−) primary peritoneal macrophages
  anti-inflammatory effect: attenuated

## CC1=CC(=O)C(C(C)C)=CC1=O [thymoquinone]
[4]
  lipopolysaccharide-induced inflammatory reactions: suppressed effectively
[4]; marker of inflammation
  concentration of nitric oxide: reduced significantly
[5]; 0.75 mg/kg dose
  concentration of IL-1a: 310.8 ± 70.93 pg/mL
[5]; 0.75 mg/kg, controls 5505.2±333.96, P<0.01
  IL-10 levels: 2885.0 ± 553.98 pg/mL
[5]; 1 mg/kg group
  concentration of IL-1a: 428.3 ± 71.32 pg/mL
[5]; P value 0.0851
  levels of IL-2: relatively lower
[5]; P value 0.1817
  levels of TNF-a: relatively lower
[5]; mice, sepsis models
  reduced mortality: 80-90%
  renal and hepatic biomarker profiles: improved

## Epigallocatechin-3-Gallate [EGCG]
[6]; cells cotreated with EGCG and LPS
  NO production: Inhibition
[6]
  disappearance of inhibitor kappaB from cytosolic fraction: blocked
[6]; electrophoretic mobility shift assay
  activation of nuclear factor-kappaB: blocked
[7]
  myeloperoxidase activity: reduced
  myocardial damage: reduced
  plasma IL-6 levels: decreased
  plasma creatine phosphokinase levels: decreased
[8]; 50 and 100 mg/kg/day
  colonic tissue erosion: attenuation
[8]; mouse, in vivo
  HIF-1a and STAT3 protein expression in the colon: decreasing
  plasma levels of IL-10: increasing
  plasma levels of TGF-1: increasing
[8]; plasma
  release of IL-6: reduce
  release of IL-17: reduce
[9]
  survival: significantly improved
[10]
  hypotension (mean arterial blood pressure): significantly improved
Macrophage foam cells
  TNF-a-induced downregulation of ABCA1 and decrease in cholesterol efflux to apoA1: attenuated
LPS-induced ARDS [11]; 10 mg/kg ip 1 h before LPS 10 mg/kg ip
  LPS-induced ARDS: attenuated
LPS-induced ARDS [11]; 10 mg/kg ip
  changes in blood gases: decreased
  histological lesions: reduced
  myeloperoxidase (MPO) activity: reduced
LPS-induced ARDS [11]; lung tissue
  expression of IKB-a: increased
  expression of TLR-4, MyD88, TRIP, and p-p65: alleviated
  expression of p65: no influence
LPS-induced ARDS [11]; [18]
  expression of IL-6: significantly decreased
  expression of interleukin (IL)-1′: significantly decreased
  expression of tumor necrosis factor (TNF)-a: significantly decreased
[12]; first dose given 24 hours after cecal ligation and puncture
  lethal sepsis: rescued
[12]; intraperitoneal administration
  lethal endotoxemia: protected
[12]; mouse, in vivo
  systemic accumulation of HMGB1, IL-6 and KC: attenuation

## trans-3,5-dimethoxy-4-hydroxystilbene [pterostilbene]
[13]
  inflammatory cytokines associated with ARDS (interleukin-I, interleukin-6, interleukin-8, TNF-alpha): inhibit inflammatory cytokines
NK cell
  NK cell activity: increased
  interferon gamma production: increased
[14]
  number of TUNEL-positive cells in the endothelium of atherosclerotic plaque: strongly decreased
[15]
  bioavailability: 80%
[16]; HUVECs, oxLDL 200 μg/ml
  oxLDL-induced cell shrinkage, chromatin condensation, nuclear fragmentation, and cell apoptosis: protected against such injuries
[16]; in vitro and in vivo
  expression of lectin-like oxLDL receptor-I (LOX-1): inhibited
